Patent publication US7695741B2, “Topical formulation for prevention and treatment of acne” (SK Chemicals Co., Ltd., priority 2002, dated 2010)
Marks after values point to notes of the source that are not given here.

Columns and labels:
mouse ear edema = assay: Balb.c ear edema test; format: in vivo, Balb.c mouse; conditions: 0.3 mg/ear topically at 15 min and 6 hr after induction; 24 hr
Experimental: To examine anti-inflammatory effect of the extracts, irritation-inducing substances, 5.0% benzalkonium chloride, 2.5% coroton oil and 3000 iu/g retinoic acid (negative control) were dissolved in 70% ethanol solution and its 0.3 mg/ear was topically applied to mouse ear (6 mice per group) in order to induce edema. At 15 min and 6 hr after induction of edema, respectively, each of the extract and controls (0.3 mg/ear) was topically applied to mouse ear. After 24 hr of application of irritation-inducing substances, the applied portion of the mouse was cut off with a punch and its weight was weighted. The edema extent was evaluated based on the mean value from the measurements with micrometer.
Inhibitory rate (%)=[(A−B)/A]×100 Formula 4
A: mean value of ear thickness of control group (ear thickness after treatment of negative control−ear thickness with no treatment)
B: ear thickness of sample group (ear thickness after treatment of sample−ear thickness with no treatment)

skin of a hairless mouse = assay: First screening for promoting keratolysis (silver acetate blackened skin, closed patch); format: in vivo; parameters: key to Discoloration (keratolysis effect): ++: significant discoloration; +: discoloration; ±: slight discoloration; −: no change; conditions: for Appearance of Exfoliation: hairless mouse, closed patch about 24 hr; for Discoloration (keratolysis effect): positive control 2 wt % (pH 4)
Experimental: All skin cells help to maintain skin homeostasis through suitable metabolic processes by controlling the rate of their proliferation and exfoliation. Therefore, the reproduction rate of skin could be indirectly examined by observing the exfoliation rate of stratum corneum that can be generally measured by evaluating the level of skin discoloration associated with keratolysis. In evaluating the efficacy of extracts, the first screening for promoting keratolysis was performed using hairless mouse. Each extract sample was prepared by dissolving the dried powder extract prepared in Example 1 in 70% ethanol and the positive controls including glycolic acid or lactic acid were prepared as described above. The experiments were carried out as follows: The skin of a hairless mouse was washed with 10% SDS for 30 min and then allowed its skin to dry for experiment. 0.4 ml of aqueous silver acetate liquid was covered with a hill top chamber and closed patch was performed for 30 min, followed by infiltrating with a photo-developing solution to blacken a portion of patch with silver acetate. The closed patch was further performed with each extract sample on the blackened portion and removed after about 24 hr. The coloring index before application of extract and discoloring index at 24 hr after removal were measured by means of calorimeter (The higher the discoloring index, the higher is the keratolysis effect)

[1] = target: T1, Testosterone 5α-Reductase (Rattus norvegicus, UniProt P24008); assay: Inhibitory effect on testosterone 5α-reductase activity (rat liver enzyme, (3H) testosterone, TLC); format: biochemical, Sprague-Dawley rat
T1 construct: from tissue; host or cells: liver of 8-week-old female Sprague-Dawley rat (homogenate, sonicated and centrifuged)
T1 sequence (P24008 1-259): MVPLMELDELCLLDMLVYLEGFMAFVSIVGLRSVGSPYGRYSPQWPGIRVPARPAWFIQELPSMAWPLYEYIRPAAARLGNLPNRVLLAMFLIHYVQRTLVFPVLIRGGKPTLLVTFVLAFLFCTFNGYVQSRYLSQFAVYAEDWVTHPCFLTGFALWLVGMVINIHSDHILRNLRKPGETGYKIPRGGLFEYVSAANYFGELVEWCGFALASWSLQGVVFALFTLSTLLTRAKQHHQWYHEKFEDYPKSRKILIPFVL
Experimental: Testosterone 5α-Reductase, used to examine the inhibitory effect of the extract obtained from oriental medicines against testosterone 5α-reductase activity, was prepared at a temperature of below 4° C. The white female Sprague-Dawley rat aged at 8 weeks was anesthetized by inhalation of diethylether and sacrificed by the disjunction of cervicals, followed by liver ablation. The extracted liver was washed three times with PBS (phosphate buffered saline) and 3 volumes of ice-cold buffer (50 mM sodium phosphate, pH 6.8, 0.25 M sucrose, 1 mM dithiothreitol) were added, followed by pulverizing with a cell homogenizer (Polytron Homogenizer), obtaining homogenized suspension. […] The protein quantification of the protein suspension obtained thus was performed according to Bradford method and its accurate value was determined with ELISA reader.
For evaluating the inhibitory effect on the activity of 5α-Reductase, to 50 μl of the reaction solution, 10 μl of ethanol solution of inhibitor or tested sample (70% ethanol solution containing extract from oriental medicine) were added and the protein suspension was added to the volume of 100 μl of the reaction solution. […] The area exposed was measured with densitometer and the inhibitory rate against testosterone 5α-Reductase was calculated as shown in the below formula 1. […]

comedo of rabbit ear [2] = assay: Alleviatory effect on comedo using ear of white rabbit, observation with naked eye; format: in vivo, New Zealand white male rabbits
From the text: (§1) Test system—This test has been generally adopted for evaluation of treatment. New Zealand white male rabbits aged at 4-month and weighed 2-3 kg were purchased and mitigated for 1 week, of which only the healthy ones determined with naked eye were selected.
(§2) Test materials—For test groups, the powderized extracts (0.1% (w/v)) from Cavalia gladiata, Biota orientalis, Coptis chinensis and their mixture dissolved in 70% ethanol solution were used, respectively, 1.0% azelaic acid dissolved in 70% ethanol solution was used as a positive control and 70% ethanol solution per se was used as negative control.
(§3) Classification of test systems—Isopropyl myriatate (Sigma) was daily applied to both ears of rabbit for 2 weeks for inducing comedo. Rabbits observed with naked eye to show typical comedo were selected and classified to groups each of which was comprised of 6 rabbits in consideration of comedo severity.
(§4) Administration method of test materials—Test groups and a positive control to the right ear and a negative control to the left ear of rabbit were administered once daily for 2 weeks in the amount of 0.5 ml and spread with a swab. After 2 weeks, both ears were evaluated.
The standards for determination with naked eye were classified to 7 grades, 0, 0.5, 1.0, 1.5, 2.0, 2.5 and 3.0. The area of comedo was evaluated. The period for treatment of comedo was 2-week and the aggravation and alleviation of comedo were determined.
• 0: no difference compared to control • […]: symptoms between 0 and 1 • 1: showing congestion, bleeding of capillary tube, slight cornification and enlargement of hair follicle • 1.5: symptoms between 1 and 2 • 2: medium severity of cornification and enlargement of hair follicle • 2.5: symptoms between 2 and 3 • 3: excessive severity of cornification and enlargement of hair follicle, showing typical comedo

comedo of rabbit ear [3] = assay: Alleviatory effect on comedo using ear of white rabbit, observation with image analysis; format: in vivo, New Zealand white male rabbits
From the text: as §1, §2, §3, §4
After the observation with naked eye, each test group was euthanized with sodium pentobarbital and its both ears were cut out, after which their tissues at basement were cleaved in a size of about 2.5×1.5 cm and immersed in warm water (50° C.) for 3 min. The epiderms from the tissues were detached, placed with inner side upward on slide glass, fixed and dried at room temperature.

Propionibacterium acnes = assay: Antimicrobial activity against acne pathogen (agar medium, anaerobic culture, colony count); format: cell-based; parameters: key: −: inhibition of growth; ±: pseudo-positive; +: positive
Experimental: The examination on antimicrobial activity of three extracts (Cavalia gladiata, Biota orientalis and Coptis chinensis) was performed in such a manner that an acne pathogen (Propionibacterium acnes) that was cultured in liquid medium was treated with a predetermined concentration of extract powderized by freeze drying and then cultured in an anaerobic incubator, followed by measuring a minimum inhibitory concentration (MIC) against an acne pathogen (Propionibacterium acnes). The overall procedure is as follows:
The acne pathogen (Propionibacterium acnes) was cultured at 37° C. for 3 days in reinforced clostridial medium and then continued to subculture until showing significant activity.
First, in a liquid culture method, 10 ml of reinforced clostridial medium were introduced to screw cap tube and sterilized for 20 min at 121° C. After sterilization, 0.5 ml of liquid paraffin sterilized separately was added dropwise on the liquid medium to protect the contact with oxygen. After cooling the medium, the microbe was inoculated into the medium and cultured at 37° C. for above 72 hr.
Second, in a solid culture method, 10 ml of the solid medium prepared by adding 0.1% agar to reinforced clostridial medium was introduced to a screw cap tube and sterilized at 121° C. for 20 min. After cooling the medium, the microbe was inoculated into the medium by use of inoculating platinum loop and stab-cultured for 72 hr at 37° C.
Third, in a plate culture method, the agar medium prepared and sterilized as a solid culture method was poured to a plate and cooled. After cooling and solidifying completely, the plate was placed in an anaerobic jar, 10 ml of water were introduced to complex gas (CO2 10.5%, H2 9.6%, N2 79.9%) and the lid was kept covered, followed by culturing at 37° C. for 72 hr.
1 ml of the medium containing Propionibacterium acnes subjected to a sufficient subculture was taken and inoculated into a medium containing 9 ml of reinforced clostridial medium, thereby obtaining 10-fold diluted culture medium. The same procedure was repeated to obtain between 10^−1 and […] diluted culture media. Each of the homogeneous solutions containing Cavalia gladiata, Biota orientalis, Coptis chinensis and at least two combinations thereof was well dissolved in 10 ml of 70% ethanol to obtain 2-fold diluted solution. The solution was filtered for removing bacteria through 0.2 μm membrane filter. […] 1 ml of the diluted medium (medium of Propionibacterium acnes subject to subculture diluted to 10^−1-10^−5) was dispensed in a petri dish and each agar medium having certain concentration was dispensed, followed by mixing and keeping it to stand for solidifying the agar medium. After solidification, the medium was placed in an anaerobic jar that in turn was equipped with gas-pak. Following culturing at 37° C. for 3 days, the number of colonies formed were counted and compared to that of a control group, and the inhibitory rate was calculated based on the results.

carrageenan foot edema = assay: Carrageenan foot edema method using SD rat; format: in vivo; conditions: 30 mg/kg intraperitoneally, 1 hr before carrageenan; foot volume change at 4 hr
Experimental: The extracts from Cavalia gladiata, Biota orientalis, Coptis chinensis and their mixture prepared in Example 1 were intraperitoneally administered, respectively, in an amount of 30 mg/kg. After 1 hr, 0.5 ml of 0.1% carrageenan solution was injected into the sole of a back foot to induce inflammation. The volume change of rat foot at the time of injection of carrageenan and 4-hr after administration was measured and the Inhibitory rate was calculated according to the Formula 3. Inhibitory rate (%)=[(1−ΔVtreated group)/ΔVcontrol group)]×100 (ΔV: volume change of foot) Formula 3

[4] = extracts 0.1% (w/v), azelaic acid 1.0%, 2 weeks

Structure (SMILES): CC1(C)[C@@H](O[C@H]2O[C@H](C(=O)O)[C@@H](O)[C@H](O)[C@H]2O[C@@H]2O[C@H](C(=O)O)[C@@H](O)[C@H](O)[C@H]2O)CC[C@]2(C)[C@H]3C(=O)C=C4[C@@H]5C[C@@](C)(C(=O)O)CC[C@]5(C)CC[C@@]4(C)[C@]3(C)CC[C@@H]12 [Glycyrrhizinic acid]
- Inhibitory rate on ear thickness (%) (mouse ear edema): 42.7%
- Inhibitory rate on ear weight (%) (mouse ear edema): 38.4%

Structure (SMILES): CC(O)C(=O)O (stereo not drawn) [Lactic acid]
- Appearance of Exfoliation (skin of a hairless mouse): Heterogeneous
- Discoloration (keratolysis effect) (skin of a hairless mouse): 2 wt % (pH 4) ++

Structure (SMILES): COc1ccc2c(c1)c(CC(=O)O)c(C)n2C(=O)c1ccc(Cl)cc1 [Indomethacin]
- Inhibitory rate on ear thickness (%) (mouse ear edema): 52.0%
- Inhibitory rate on ear weight (%) (mouse ear edema): 45.6%

Structure (SMILES): O=C(O)CCCCCCCC(=O)O [Azelaic acid]
- Inhibitory rate against 5α-reductase (%) ([1]; Conc. 0.1 %): 19.8%
- Inhibitory rate against 5α-reductase (%) ([1]; Conc. 1.0 %): 100.0%
- Inhibitory rate (%), naked eye comedo grade (comedo of rabbit ear [2]; [4]): 28.5%
- After administration (right ear), naked eye comedo grade (comedo of rabbit ear [2]; grades 0-3, extracts 0.1% (w/v), azelaic acid 1.0%, 0.5 ml once daily for 2 weeks): 1.13 ± 0.14
- Before administration (left ear), naked eye comedo grade (comedo of rabbit ear [2]; grades 0-3, left ear): 1.58 ± 0.12
- Inhibitory rate (%), area of comedo/number (comedo of rabbit ear [3]; [4]): 40.0%
- After administration (right ear) Area of comedo/number (cm^2) (comedo of rabbit ear [3]; image analysis, extracts 0.1% (w/v), azelaic acid 1.0%, once daily for 2 weeks): 0.18 ± 0.02 cm^2
- Before administration (left ear) Area of comedo/number (cm^2) (comedo of rabbit ear [3]; image analysis, left ear): 0.30 ± 0.02 cm^2
- comedo decreasing ratio (area/count ratio) (comedo of rabbit ear [3]; text restating Table 11): 40.0%

Structure (SMILES): O=C(O)CO [Glycolic acid]
- Appearance of Exfoliation (skin of a hairless mouse): Heterogeneous
- Discoloration (keratolysis effect) (skin of a hairless mouse): 2 wt % (pH 4) ++

Structure (SMILES): O=C(OOC(=O)c1ccccc1)c1ccccc1 [Benzoylperoxide]
- MIC to P. acnes (growth at concentration of extract) (Propionibacterium acnes; Concentration of extract 0.005 %): +
- MIC to P. acnes (growth at concentration of extract) (Propionibacterium acnes; Concentration of extract 0.01 %): +
- MIC to P. acnes (growth at concentration of extract) (Propionibacterium acnes; Concentration of extract 0.03 %): +
- MIC to P. acnes (growth at concentration of extract) (Propionibacterium acnes; Concentration of extract 0.05 %): +***
- MIC to P. acnes (growth at concentration of extract) (Propionibacterium acnes; Concentration of extract 0.10 %): ±**
- MIC to P. acnes (growth at concentration of extract) (Propionibacterium acnes; Concentration of extract 0.50 %): −

Structure (SMILES): CC(=O)Oc1ccccc1C(=O)O [Aspirin]
- Inhibitory rate (%) of foot edema (carrageenan foot edema): 35.2 ± 6%
